IC50 data for 1 compound are collected here from US7132504B2, “Hepatitis C virus inhibitors” (Bristol-Myers Squibb Company, priority 2003, dated 2006).

The target in experiment [1] is BMS strain of the NS3/4A protease complex (UniProt P27958, C1454S/C1711G, species not given/STRAIN_BMS). In words: Recombinant HCV NS3/4A protease complex FRET peptide assay, BMS strain. Type of experiment: biochemical, HCV genotype 1a (BMS strain). An excerpt:
The purpose of this in vitro assay was to measure the inhibition of HCV NS3 protease complexes, derived from the BMS strain, H77 strain or J416S strain, as described below, by compounds of the present invention. This assay provides an indication of how effective compounds of the present invention would be in inhibiting HCV proteolytic activity.
Serum from an HCV-infected patient was obtained from Dr. T. Wright, San Francisco Hospital. An engineered full-length cDNA (compliment deoxyribonucleic acid) template of the HCV genome (BMS strain) was constructed from DNA fragments obtained by reverse transcription-PCR (RT-PCR) of serum RNA (ribonucleic acid) and using primers selected on the basis of homology between other genotype 1a strains. From the determination of the entire genome sequence, a genotype 1a was assigned to the HCV isolate according to the classification of Simmonds et al. (See P Simmonds, K A Rose, S Graham, S W Chan, F McOmish, B C Dow, E A Follett, P L Yap and H Marsden, J. Clin. Microbiol., 31(6), 1493–1503 (1993)). […]

The target in experiment [2] is T1, human neutrophil elastase (HNE) (Homo sapiens, UniProt P08246).
T1 construct: purchased Sigma
T1 sequence (P08246 30-267): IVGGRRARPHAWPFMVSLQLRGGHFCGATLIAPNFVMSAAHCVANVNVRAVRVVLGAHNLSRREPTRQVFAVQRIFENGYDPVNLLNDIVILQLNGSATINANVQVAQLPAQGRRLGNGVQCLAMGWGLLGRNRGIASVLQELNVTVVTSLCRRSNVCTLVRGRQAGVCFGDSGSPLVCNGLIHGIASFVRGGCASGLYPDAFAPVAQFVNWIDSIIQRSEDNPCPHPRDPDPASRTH
In words: Specificity assay, human neutrophil elastase. Conditions: 2 h enzyme-inhibitor pre-incubation. It counts as biochemical. The protocol: The specificities of compounds of the present invention were determined against a variety of serine proteases: human neutrophil elastase (HNE), porcine pancreatic elastase (PPE) and human pancreatic chymotrypsin and one cysteine protease: human liver cathepsin B. In all cases a 96-well plate format protocol using colorimetric p-nitroaniline (pNA) substrate specific for each enzyme was used as described previously (PCT Patent Application No. WO 00/09543) with some modifications to the serine protease assays. All enzymes were purchased from Sigma while the substrates were from Bachem.
Each assay included a 2 h enzyme-inhibitor pre-incubation at room temperature followed by addition of substrate and hydrolysis to ˜30% conversion as measured on a Spectramax Pro microplate reader. Compound concentrations varied from 100 to 0.4 μM depending on their potency. […]
The percentage of inhibition was calculated using the formula: [1−((UVinh−UVblank)/(UVctl−UVblank))]×100 […]

Molecules are shown by their SMILES.

Regarding `C=CC1C[C@]1(NC(=O)[C@@H]1C[C@@H](Oc2cc(-c3ccccc3)nc3cc(OC)ccc23)CN1C(=O)[C@@H](NC(=O)OC)C(C)(C)C)C(=O)NS(=O)(=O)N(C)Cc1ccccc1` (some centres unmarked) [Compound 9], the IC50 – broadly, the concentration at which inhibition is half-maximal – in experiment [1] was 0.128 µM; in experiment [2], 46 µM.
